This passage reports Ki results from ChEMBL document CHEMBL1130742, “Inhibition of thermolysin with nitrone-bearing substrate analogs: a new type of thermolysin inhibitors” (Bioorg Med Chem Lett, 1998).

pKi: −log10 of the molar value.

The target of the experiment is T1, Thermolysin (Bacillus thermoproteolyticus, UniProt P00800).
T1 sequence (P00800 whole entry): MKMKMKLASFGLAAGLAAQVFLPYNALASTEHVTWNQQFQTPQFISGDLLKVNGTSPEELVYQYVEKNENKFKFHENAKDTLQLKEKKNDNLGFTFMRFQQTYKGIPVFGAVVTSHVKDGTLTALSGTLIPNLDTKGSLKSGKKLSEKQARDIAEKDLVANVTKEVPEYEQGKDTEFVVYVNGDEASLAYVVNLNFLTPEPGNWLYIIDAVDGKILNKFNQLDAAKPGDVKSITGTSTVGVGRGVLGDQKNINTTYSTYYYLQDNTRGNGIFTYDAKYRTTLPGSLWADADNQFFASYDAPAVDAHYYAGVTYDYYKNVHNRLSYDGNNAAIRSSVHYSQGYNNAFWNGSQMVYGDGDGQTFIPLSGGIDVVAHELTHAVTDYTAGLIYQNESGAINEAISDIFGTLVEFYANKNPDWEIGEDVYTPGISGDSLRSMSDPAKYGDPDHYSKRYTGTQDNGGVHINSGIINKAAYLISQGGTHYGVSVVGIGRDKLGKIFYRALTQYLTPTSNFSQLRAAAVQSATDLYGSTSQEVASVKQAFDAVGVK
The experiment can be described thus: Inhibitory activity against thermolysin using 2-furylacryloyl-Gly-Leu-NH2 as substrate at pH 7.2.
As usually defined, the pKi is the Ki on a negative log10 scale, so that one unit is a factor of ten. Read a high pKi as a low Ki. Regarding `NC(=O)C(/C=[N+](\[O-])Cc1ccccc1)Cc1ccccc1` (stereo not drawn), the pKi is 4.40.
Next, `COC(=O)C(Cc1ccccc1)C/[N+]([O-])=C/c1ccccc1` (stereo not drawn): 3.61; `O=C(O)CNC(=O)C(CC(=O)O)Cc1ccccc1` (stereo not drawn): 3.47; `O=C(O)CNC(=O)C(/C=[N+](\[O-])Cc1ccccc1)Cc1ccccc1` (stereo not drawn): 4.27.
Molecule `COC(=O)C(Cc1ccccc1)/[N+]([O-])=C/c1ccccc1` (stereo not drawn) gave a pKi of 2.72.
Then `O=CN(O)CC(Cc1ccccc1)C(=O)NCC(=O)O` (stereo not drawn), with 4.47; and `COC(=O)C(/C=[N+](\[O-])Cc1ccccc1)Cc1ccccc1` (stereo not drawn), with 4.09; and `NC(=O)C(Cc1ccccc1)/[N+]([O-])=C/c1ccccc1` (stereo not drawn), with 3.11.
